Results from PMC3950723, “A fluorescence-based assay suitable for quantitative analysis of deadenylase enzyme activity” (Nucleic Acids Research, 2013).
{Flc} = fluorescein group

Key:
Assay type in all cases: biochemical
Caf1/CNOT7 = target: T1, Caf1/CNOT7 (Homo sapiens, UniProt Q9UIV1); assay: fluorescence-based deadenylase assay; settings: for inhibition of Caf1/CNOT7 activity: 300 µM compound; for IC50: 15 min pre-incubation at room temperature, 60 min at 30°C, ± standard error of the mean, at least three independent experiments
T1 construct: hexahistidine (N); made in house; host or cells: Escherichia coli BL21 (DE3), plasmid pQE80L
T1 sequence (Q9UIV1 whole entry): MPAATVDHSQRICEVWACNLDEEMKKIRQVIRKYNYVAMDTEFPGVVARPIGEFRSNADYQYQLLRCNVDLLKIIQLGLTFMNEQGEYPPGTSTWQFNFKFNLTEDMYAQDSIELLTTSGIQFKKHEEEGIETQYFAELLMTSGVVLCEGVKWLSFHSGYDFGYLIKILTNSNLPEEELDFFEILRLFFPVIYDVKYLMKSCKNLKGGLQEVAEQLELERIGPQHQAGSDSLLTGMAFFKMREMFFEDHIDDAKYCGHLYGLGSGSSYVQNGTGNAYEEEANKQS
Method: (§1) Standard reaction conditions for deadenylase assays were: 20 mM Tris–HCl pH 7.9, 50 mM NaCl, 2 mM MgCl2, 10% glycerol, 1 mM β-mercaptoethanol and 1.0 µM 5′-Flc-labelled RNA substrate in nuclease-free water.
(§2) For fluorescence-based detection of nuclease activity, deadenylase reactions (10–20 µl) were incubated at 30°C for 60 min and stopped by the addition of an equal volume of probe mix containing 1% SDS, and a 5-fold molar excess of 3′-labelled DNA probe. Fluorescence intensity was measured at 25°C (sensitivity setting 70–90) using a BioTek Synergy HT plate reader with 96 or 384 U-shaped black multi-well plates. Filter sets used were: 485 ± 20 nm (excitation) and 528 ± 20 nm (emission). Data analysis and curve-fitting were carried out using Microsoft Excel 2007 and Graphpad Prism 5.0.
Compounds (10 mM in dimethyl sulphoxide, DMSO) were stored in a dry, inert environment at −20°C and dispensed in 96-well plates using an automated facility (TTP Labtech Technology). Compounds were diluted to 0.5 mM using 20% DMSO/water. Aliquots (4 µl; 25% DMSO/water) were transferred to black U-well 384-well plates (Greiner Bio-One) and subsequent automated screening was carried out using a Biomek 3000 liquid handler (Beckman Coulter). After addition of enzyme (8 µl containing 1.0 µM Caf1/CNOT7, 50 mM Tris–HCl pH 7.9, 125 mM NaCl, 5 mM MgCl2, 25% glycerol, 2.5 mM β-mercaptoethanol), plates were left at room temperature for 15 min before the addition of RNA substrate (8 µl). The composition of the final reaction mixture was: 0.4 µM Caf1/CNOT7, 20 mM Tris–HCl pH 7.9, 50 mM NaCl, 2 mM MgCl2, 10% glycerol, 1 mM β-mercaptoethanol, 5% DMSO, 100 µM library compound. After incubation at 30°C for 60 min, 20 µl probe mix (5 µM DNA probe, 1% SDS, 20 mM Tris–HCl pH 8.0, 0.5 mM EDTA) was added. Fluorescence was measured using a BioTek Synergy HT plate reader as described above.

PARN = target: T2, PARN (Homo sapiens, UniProt O95453); assay: fluorescence-based deadenylase assay, selectivity; settings: 300 µM compound
T2 construct: made in house
T2 sequence (O95453 1-639): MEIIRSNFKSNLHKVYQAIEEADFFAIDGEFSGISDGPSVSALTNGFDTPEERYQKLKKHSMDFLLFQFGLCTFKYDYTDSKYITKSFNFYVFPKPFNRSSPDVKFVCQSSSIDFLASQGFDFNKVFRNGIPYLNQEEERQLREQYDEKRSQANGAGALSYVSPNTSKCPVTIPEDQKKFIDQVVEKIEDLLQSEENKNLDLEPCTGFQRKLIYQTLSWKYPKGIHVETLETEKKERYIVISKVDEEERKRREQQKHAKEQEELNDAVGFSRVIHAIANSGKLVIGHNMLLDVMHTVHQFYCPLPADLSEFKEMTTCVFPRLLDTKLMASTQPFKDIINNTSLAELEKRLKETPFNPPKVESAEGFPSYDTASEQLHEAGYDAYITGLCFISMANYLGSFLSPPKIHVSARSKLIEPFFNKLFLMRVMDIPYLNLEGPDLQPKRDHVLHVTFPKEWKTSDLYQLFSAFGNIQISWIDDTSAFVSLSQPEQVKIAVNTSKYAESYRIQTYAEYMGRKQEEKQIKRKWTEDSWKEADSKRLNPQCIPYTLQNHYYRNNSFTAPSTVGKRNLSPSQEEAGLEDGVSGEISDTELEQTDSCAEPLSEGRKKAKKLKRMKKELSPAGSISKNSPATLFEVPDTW
Method: as §1, §2

Ccr4/CNOT6L = target: T3, Ccr4/CNOT6L (Homo sapiens, UniProt Q96LI5); assay: fluorescence-based deadenylase assay, selectivity; settings: 300 µM compound
T3 construct: lacking the amino terminal leucine-rich repeat domain (amino acids 1–155); made in house; host or cells: E. coli, plasmid pQE80L
T3 sequence (Q96LI5 156-555): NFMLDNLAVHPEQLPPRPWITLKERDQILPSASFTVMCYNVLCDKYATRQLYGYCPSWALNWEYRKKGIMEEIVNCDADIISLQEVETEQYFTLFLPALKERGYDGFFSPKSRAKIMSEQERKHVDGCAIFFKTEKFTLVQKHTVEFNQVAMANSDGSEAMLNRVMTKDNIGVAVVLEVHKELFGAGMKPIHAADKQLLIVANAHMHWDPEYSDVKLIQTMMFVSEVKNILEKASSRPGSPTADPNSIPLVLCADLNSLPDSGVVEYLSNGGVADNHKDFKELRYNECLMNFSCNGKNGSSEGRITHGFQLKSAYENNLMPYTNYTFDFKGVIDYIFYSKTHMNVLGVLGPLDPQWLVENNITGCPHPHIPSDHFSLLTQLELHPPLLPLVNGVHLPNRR
Method: as §1, §2

[1] = test system: HeLa S-100 cytoplasmic extract; assay: fluorescence-based detection of 3′ exonuclease activity in complex mixtures; settings: 300 µM compound, 0.05 mg/ml S-100 fraction
Method: as §1, §2
HeLa cytoplasmic extract (S-100 fraction) was purchased from Boston Biochem (cat no F-372, 5 mg/ml).

5′-CCU UUC CAA AAA AAA A-3′ (CCUUUCCAAAAAAAAA; RNA, 5' {Flc}, backbone not given here; Deadenylase RNA substrate) [oligonucleotide substrate, 16-mer RNA substrate oligonucleotide containing a 5′ fluorescein (Flc) group, reference compound]
Km (Caf1/CNOT7; 0.4 µM Caf1/CNOT7, non-linear regression of Michaelis–Menten equation): 10.6 ± 2.9 µM

Cc1ccccc1C(=O)Nc1nc2ccc(S(=O)(=O)NCC(C)C)cc2s1 [NCC-00001590]
inhibition of Caf1/CNOT7 activity (Caf1/CNOT7): only inhibited Caf1/CNOT7 | IC50 (Caf1/CNOT7): 98.7 ± 10.9 µM | inhibition of PARN activity (PARN): did not inhibit | inhibition of Ccr4/CNOT6L activity (Ccr4/CNOT6L): did not inhibit

CC(Cc1ccco1)NC(=O)CSc1nnc(C(=O)Nc2ccc(Cl)cc2)s1 (stereo not drawn) [NCC-00007277]
IC50 (Caf1/CNOT7): 137 ± 20.3 µM | inhibition of activity of the S-100 fraction [1]: strongest effect

Cc1ccc(S(=O)(=O)NCc2nnc(NC(=O)c3ccc(NC(=O)C(F)(F)F)cc3)s2)cc1 [NCC-00010651]
IC50 (Caf1/CNOT7): 233 ± 23.5 µM | inhibition of PARN activity (PARN): no complete inhibition | inhibition of Ccr4/CNOT6L activity (Ccr4/CNOT6L): no complete inhibition

Cc1ccc(N(CCC#N)C(=O)CSc2nc3cc(S(N)(=O)=O)ccc3n2C)cc1 [NCC-00019223]
IC50 (Caf1/CNOT7): 97.5 ± 36.1 µM

COc1ccccc1NC(=O)c1ccc(NC(=O)CNC(=O)C(=O)NCc2cccs2)cc1 [NCC-00039069]
inhibition of Caf1/CNOT7 activity (Caf1/CNOT7): only inhibited Caf1/CNOT7 | IC50 (Caf1/CNOT7): 129 ± 18.8 µM | inhibition of PARN activity (PARN): did not inhibit | inhibition of Ccr4/CNOT6L activity (Ccr4/CNOT6L): did not inhibit
